# Test results published in patent US20240000872A1, “NOVEL BACTERIOPHAGE THAT LYSES ACINETOBACTER GENUS BACTERIA HAVING RESISTANCE TO ANTIBIOTICS” (priority 2020, published 2024).
# Test system: Acinetobacter baumannii strains
# Experiment: Antibiotic susceptibility test (CLSI disk diffusion test method, read per CLSI 2016); for antibiotic susceptibility S/I/R: key: ‘S’ means susceptible; ‘I’ means intermediate; ‘R’ means resistant; for antibiotic susceptibility class: key: ‘S’ means susceptible; ‘I’ means intermediate; ‘R’ means resistant; for susceptibility category (S/I/R): key: ‘S’ means susceptible; ‘I’ means intermediate; ‘R’ means resistant
# Assay type: cell-based
# Parameters: antibiotic susceptibility test value / susceptibility test value (number given before S/I/R) / antibiotic susceptibility value: unit not given here
substance,measurement,setting,value
ampicillin-sulbactam,antibiotic susceptibility class,host strain YMC14/01/C29,R
same,antibiotic susceptibility test value,host strain YMC14/01/C29,32
same,antibiotic susceptibility class,host strain YMC14/01/IP122,R
same,antibiotic susceptibility test value,host strain YMC14/01/IP122,32
same,antibiotic susceptibility class,host strain YMC14/01/L8,R
same,antibiotic susceptibility test value,host strain YMC14/01/L8,32
same,antibiotic susceptibility class,host strain YMC14/01/P31,R
same,antibiotic susceptibility test value,host strain YMC14/01/P31,32
same,antibiotic susceptibility class,host strain YMC14/01/P117,R
same,antibiotic susceptibility test value,host strain YMC14/01/P117,32
same,antibiotic susceptibility class,host strain YMC14/01/P224,I
same,antibiotic susceptibility test value,host strain YMC14/01/P224,16
same,antibiotic susceptibility class,host strain YMC14/01/P727,R
same,antibiotic susceptibility test value,host strain YMC14/01/P727,32
same,antibiotic susceptibility class,host strain YMC14/01/P728,I
same,antibiotic susceptibility test value,host strain YMC14/01/P728,16
same,antibiotic susceptibility class,host strain YMC14/01/R130,I
same,antibiotic susceptibility test value,host strain YMC14/01/R130,16
same,antibiotic susceptibility class,host strain YMC14/01/R160,R
same,antibiotic susceptibility test value,host strain YMC14/01/R160,32
same,antibiotic susceptibility class,host strain YMC14/01/R198,R
same,antibiotic susceptibility test value,host strain YMC14/01/R198,32
same,antibiotic susceptibility class,host strain YMC14/01/R257,R
same,antibiotic susceptibility test value,host strain YMC14/01/R257,32
same,antibiotic susceptibility class,host strain YMC14/01/R270,R
same,antibiotic susceptibility test value,host strain YMC14/01/R270,32
same,antibiotic susceptibility class,host strain YMC14/01/R324,S
same,antibiotic susceptibility test value,host strain YMC14/01/R324,8
same,antibiotic susceptibility class,host strain YMC14/01/R443,R
same,antibiotic susceptibility test value,host strain YMC14/01/R443,32
same,antibiotic susceptibility class,host strain YMC14/01/R451,R
same,antibiotic susceptibility test value,host strain YMC14/01/R451,32
same,antibiotic susceptibility class,host strain YMC14/01/R560,R
same,antibiotic susceptibility test value,host strain YMC14/01/R560,32
same,antibiotic susceptibility class,host strain YMC14/01/R617,R
same,antibiotic susceptibility test value,host strain YMC14/01/R617,32
same,antibiotic susceptibility class,host strain YMC14/01/R671,R
same,antibiotic susceptibility test value,host strain YMC14/01/R671,32
same,antibiotic susceptibility class,host strain YMC14/01/R732,R
same,antibiotic susceptibility test value,host strain YMC14/01/R732,32
same,antibiotic susceptibility class,host strain YMC14/01/R767,I
same,antibiotic susceptibility test value,host strain YMC14/01/R767,16
same,antibiotic susceptibility class,host strain YMC14/01/R904,R
same,antibiotic susceptibility test value,host strain YMC14/01/R904,32
same,antibiotic susceptibility class,host strain YMC14/01/R905,R
same,antibiotic susceptibility test value,host strain YMC14/01/R905,32
same,antibiotic susceptibility class,host strain YMC14/01/R921,I
same,antibiotic susceptibility test value,host strain YMC14/01/R921,16
same,antibiotic susceptibility class,host strain YMC14/01/R941,R
same,antibiotic susceptibility test value,host strain YMC14/01/R941,32
same,antibiotic susceptibility class,host strain YMC14/01/R958,I
same,antibiotic susceptibility test value,host strain YMC14/01/R958,16
same,antibiotic susceptibility class,host strain YMC14/01/R1006,I
same,antibiotic susceptibility test value,host strain YMC14/01/R1006,16
same,antibiotic susceptibility class,host strain YMC14/01/R1199,I
same,antibiotic susceptibility test value,host strain YMC14/01/R1199,16
same,antibiotic susceptibility class,host strain YMC14/01/R1659,I
same,antibiotic susceptibility test value,host strain YMC14/01/R1659,16
same,antibiotic susceptibility class,host strain YMC14/01/R1722,I
same,antibiotic susceptibility test value,host strain YMC14/01/R1722,16
same,antibiotic susceptibility class,host strain YMC14/01/R1752,I
same,antibiotic susceptibility test value,host strain YMC14/01/R1752,16
same,antibiotic susceptibility class,host strain YMC14/01/R2429,I
same,antibiotic susceptibility test value,host strain YMC14/01/R2429,16
same,antibiotic susceptibility class,host strain YMC14/01/R2572,I
same,antibiotic susceptibility test value,host strain YMC14/01/R2572,16
same,antibiotic susceptibility class,host strain YMC14/01/R2855,I
same,antibiotic susceptibility test value,host strain YMC14/01/R2855,16
same,antibiotic susceptibility class,host strain YMC14/01/R2945,S
same,antibiotic susceptibility test value,host strain YMC14/01/R2945,4
same,antibiotic susceptibility class,host strain YMC14/01/R3007,I
same,antibiotic susceptibility test value,host strain YMC14/01/R3007,16
same,antibiotic susceptibility class,host strain YMC14/01/R3129,R
same,antibiotic susceptibility test value,host strain YMC14/01/R3129,32
same,antibiotic susceptibility class,host strain YMC14/01/R3317,I
same,antibiotic susceptibility test value,host strain YMC14/01/R3317,16
same,antibiotic susceptibility class,host strain YMC14/01/R3474,R
same,antibiotic susceptibility test value,host strain YMC14/01/R3474,32
same,antibiotic susceptibility class,host strain YMC14/01/R3574,I
same,antibiotic susceptibility test value,host strain YMC14/01/R3574,16
same,antibiotic susceptibility class,host strain YMC14/01/U313,S
same,antibiotic susceptibility test value,host strain YMC14/01/U313,2
same,antibiotic susceptibility class,host strain YMC14/01/U318,R
same,antibiotic susceptibility test value,host strain YMC14/01/U318,32
same,antibiotic susceptibility class,host strain YMC14/02/L18,I
same,antibiotic susceptibility test value,host strain YMC14/02/L18,16
same,antibiotic susceptibility class,host strain YMC14/02/P47,R
same,antibiotic susceptibility test value,host strain YMC14/02/P47,32
same,antibiotic susceptibility class,host strain YMC14/02/R1860,I
same,antibiotic susceptibility test value,host strain YMC14/02/R1860,16
same,antibiotic susceptibility class,host strain YMC14/02/R2417,I
same,antibiotic susceptibility test value,host strain YMC14/02/R2417,16
same,antibiotic susceptibility class,host strain YMC14/02/R2599,R
same,antibiotic susceptibility test value,host strain YMC14/02/R2599,32
same,antibiotic susceptibility class,host strain YMC14/02/R2668,S
same,antibiotic susceptibility test value,host strain YMC14/02/R2668,8
same,antibiotic susceptibility class,host strain YMC14/02/R2758,S
same,antibiotic susceptibility test value,host strain YMC14/02/R2758,8
same,antibiotic susceptibility class,host strain YMC14/02/R2781,R
same,antibiotic susceptibility test value,host strain YMC14/02/R2781,32
same,antibiotic susceptibility class,host strain YMC14/02/R3106,S
same,antibiotic susceptibility test value,host strain YMC14/02/R3106,8
same,antibiotic susceptibility class,host strain YMC14/02/R3419,I
same,antibiotic susceptibility test value,host strain YMC14/02/R3419,16
same,antibiotic susceptibility class,host strain YMC14/02/U1607,I
same,antibiotic susceptibility test value,host strain YMC14/02/U1607,16
same,antibiotic susceptibility class,host strain YMC14/03/L9,I
same,antibiotic susceptibility test value,host strain YMC14/03/L9,16
same,antibiotic susceptibility class,host strain YMC14/03/P471,S
same,antibiotic susceptibility test value,host strain YMC14/03/P471,8
same,antibiotic susceptibility class,host strain YMC14/03/R122,R
same,antibiotic susceptibility test value,host strain YMC14/03/R122,32
same,antibiotic susceptibility class,host strain YMC14/03/R217,I
same,antibiotic susceptibility test value,host strain YMC14/03/R217,16
same,antibiotic susceptibility class,host strain YMC14/03/R380,S
same,antibiotic susceptibility test value,host strain YMC14/03/R380,8
same,antibiotic susceptibility class,host strain YMC14/03/R618,S
same,antibiotic susceptibility test value,host strain YMC14/03/R618,8
same,antibiotic susceptibility class,host strain YMC14/03/R2144,I
same,antibiotic susceptibility test value,host strain YMC14/03/R2144,16
same,antibiotic susceptibility class,host strain YMC14/03/U4616,I
same,antibiotic susceptibility test value,host strain YMC14/03/U4616,16
same,antibiotic susceptibility class,host strain YMC14/04/R1078,R
same,antibiotic susceptibility test value,host strain YMC14/04/R1078,32
same,antibiotic susceptibility class,host strain YMC14/04/R1080,S
same,antibiotic susceptibility test value,host strain YMC14/04/R1080,4
same,antibiotic susceptibility S/I/R,host strain YMC14/06/R2359,S
same,antibiotic susceptibility value,host strain YMC14/06/R2359,8
same,susceptibility category (S/I/R),host strain YMC14/06/R2359,S
same,susceptibility test value (number given before S/I/R),host strain YMC14/06/R2359,8
same,antibiotic susceptibility value,host strain YMC14/08/R1169,16
same,susceptibility category (S/I/R),host strain YMC14/08/R1169,I
same,susceptibility test value (number given before S/I/R),host strain YMC14/08/R1169,16
same,antibiotic susceptibility S/I/R,host strain YMC14/08/T90,S
same,antibiotic susceptibility value,host strain YMC14/08/T90,8
same,susceptibility category (S/I/R),host strain YMC14/08/T90,S
same,susceptibility test value (number given before S/I/R),host strain YMC14/08/T90,8
same,antibiotic susceptibility S/I/R,host strain YMC15/02/R436,R
same,antibiotic susceptibility value,host strain YMC15/02/R436,32
same,susceptibility category (S/I/R),host strain YMC15/02/R436,R
same,susceptibility test value (number given before S/I/R),host strain YMC15/02/R436,32
same,antibiotic susceptibility value,host strain YMC15/02/T28,16
same,susceptibility category (S/I/R),host strain YMC15/02/T28,I
same,susceptibility test value (number given before S/I/R),host strain YMC15/02/T28,16
same,antibiotic susceptibility value,host strain YMC15/03/R1604,16
same,susceptibility category (S/I/R),host strain YMC15/03/R1604,I
same,susceptibility test value (number given before S/I/R),host strain YMC15/03/R1604,16
same,antibiotic susceptibility value,host strain YMC15/09/R1869,16
same,susceptibility category (S/I/R),host strain YMC15/09/R1869,I
same,susceptibility test value (number given before S/I/R),host strain YMC15/09/R1869,16
same,antibiotic susceptibility S/I/R,host strain YMC16/01/P11,R
same,antibiotic susceptibility value,host strain YMC16/01/P11,32
same,susceptibility category (S/I/R),host strain YMC16/01/P11,R
same,susceptibility test value (number given before S/I/R),host strain YMC16/01/P11,32
same,antibiotic susceptibility S/I/R,host strain YMC16/01/R123,R
